For the assay, the target named is T1, Kv1.3 potassium channel (Homo sapiens, UniProt P22001).
T1 construct: expressed in transfected cells
The assay can be described thus: Kv1.3 potassium channel blocker activity, automated whole-cell patch clamp (Patchliner) in CHO-K1 cells stably expressing Kv1.3. It counts as cell-based. The procedure:
Example 82. Evaluation of Kv1.3 potassium channel blocker activities
This assay is used to evaluate the disclosed compounds' activities as Kv1.3 potassium channel blockers.
CHO-K1 cells stably expressing Kv1.3 were grown in DMEM containing 10% heat-inactivated FBS, 1 mM sodium pyruvate, 2 mM L-glutamine, and G418 (500 μg/ml).
All compounds were dissolved in DMSO at 30 mM.
The currents were evoked by applying 100 ms depolarizing pulses from −90 mV (holding potential) to +40 mV were applied with 0.1 Hz frequency. […] 10-second breaks were used between pulse trains (see Table A below).
Data were sampled at 10 kHz without filtering. Passive leak currents were subtracted online using a P/4 procedure (HEKA Elektronik Dr. Schulze GmbH). […] Total compound incubation time before the next pulse train was not longer than 10 seconds. Peak current inhibition was observed during compound equilibration.
(Patch clamp records ionic current or voltage across a cell membrane.)

Setting [1] is: CHO-K1 cells stably expressing Kv1.3, patch clamp, current inhibition, read-out: Kv1.3 IC50.

Like-named read-outs stand apart in the source and are kept apart here.

T1 sequence (P22001 whole entry): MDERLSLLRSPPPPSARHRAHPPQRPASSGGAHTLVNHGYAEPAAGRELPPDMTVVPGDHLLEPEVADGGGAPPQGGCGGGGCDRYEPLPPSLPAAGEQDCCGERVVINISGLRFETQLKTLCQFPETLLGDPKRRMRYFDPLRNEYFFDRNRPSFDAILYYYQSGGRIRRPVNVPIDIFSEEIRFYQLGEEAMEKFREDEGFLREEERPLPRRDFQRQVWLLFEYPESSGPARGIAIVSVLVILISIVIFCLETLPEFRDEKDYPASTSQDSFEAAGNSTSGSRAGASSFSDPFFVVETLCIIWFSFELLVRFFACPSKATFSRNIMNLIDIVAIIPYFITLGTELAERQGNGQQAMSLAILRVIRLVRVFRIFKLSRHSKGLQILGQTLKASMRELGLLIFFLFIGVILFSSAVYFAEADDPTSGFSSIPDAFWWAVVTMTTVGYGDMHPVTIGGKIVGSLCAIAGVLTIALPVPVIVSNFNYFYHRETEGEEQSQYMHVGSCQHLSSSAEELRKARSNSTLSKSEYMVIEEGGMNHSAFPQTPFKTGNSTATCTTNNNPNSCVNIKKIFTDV

By IC50 is commonly meant the midpoint of a concentration-inhibition curve. Take `O=S(=O)(C1CCNC1)N1CCC(c2c(O)cc(Cl)c(Cl)c2Cl)CC1` (centres unmarked) [Compound 95, 3,4,5-trichloro-2-[1-(pyrrolidine-3-sulfonyl)piperidin-4-yl]phenol]: the IC50 under setting [1] was less than 10 µM.

`Oc1cc(Cl)c(Cl)cc1C1(O)CCNCC1` (single isomer, unassigned) [Compound 59, 4-(4,5-dichloro-2-hydroxyphenyl)piperidin-4-ol]: under setting [1], the IC50 is less than 10 µM.

`Oc1ccc(F)c(Cl)c1C1CCNCC1` [Compound 68, 3-chloro-4-fluoro-2-(piperidin-4-yl)phenol]: the IC50 under setting [1] is less than 10 µM.

For the compound `O=C([C@H]1C[C@@H](c2c(O)ccc(Cl)c2Cl)CCN1)N1CCOCC1` (relative stereo) [Compound 80, (2R,4S)-rel-3,4-dichloro-2-[2-(morpholine-4-carbonyl)piperidin-4-yl]phenol], the IC50 under setting [1] is less than 10 µM.

Regarding `Oc1cc(Cl)c(Cl)cc1C1CNC1` [Compound 22, 2-(azetidin-3-yl)-4,5-dichlorophenol], under setting [1], the IC50 is less than 10 µM.

Regarding `Oc1cc(Cl)c(Cl)cc1N1CCCNCC1` [Compound 37, 4,5-dichloro-2-(1,4-diazepan-1-yl)phenol], the IC50 under setting [1] is less than 10 µM.

Compound `Oc1cc(Cl)c(Cl)cc1C1=CC2CCC(C1)N2` (centres unmarked) [Compound 17, 2-[8-azabicyclo[3.2.1]oct-2-en-3-yl]-4,5-dichlorophenol] showed an IC50 of less than 10 µM.

With `NC(=O)[C@H]1CN(c2c(O)ccc(Cl)c2Cl)CCN1` [Compound 90, (2R)-4-(2,3-dichloro-6-hydroxyphenyl)piperazine-2-carboxamide], under setting [1], the IC50 is less than 10 µM.

Turning to `CN(C)C(=O)[C@H]1C[C@@H](c2c(O)ccc(Cl)c2Cl)CCN1` (relative stereo) [Compound 77, (2R,4S)-rel-4-(2,3-dichloro-6-hydroxyphenyl)-N,N-dimethylpiperidine-2-carboxamide], the IC50 under setting [1] was less than 10 µM.

Turning to `CC1(c2cc(Cl)c(Cl)cc2O)CCNCC1` [Compound 1, 4,5-dichloro-2-(4-methylpiperidin-4-yl)phenol], the IC50 under setting [1] is less than 10 µM.

Turning to `Oc1cc(Cl)c(Cl)cc1C1=CCCNC1` [Compound 19, 4,5-dichloro-2-(1,2,3,6-tetrahydropyridin-5-yl)phenol], under setting [1], the IC50 is less than 10 µM.

For the compound `O=C(NC1CNC1)C1CN[C@@H](c2c(O)ccc(Cl)c2Cl)C1` (single isomer, unassigned) [Compound 121], under setting [1], the IC50 is less than 1 µM.

As for `O=C(NC1CNC1)[C@H]1CCC(c2c(O)ccc(Cl)c2Cl)N1` (single isomer, unassigned) [Compound 117], the IC50 under setting [1] was less than 30 µM.

As to `CC(=O)N1CCC(c2cc(Cl)c(Cl)cc2O)CC1` [Compound 10, 1-[4-(4,5-dichloro-2-hydroxyphenyl)piperidin-1-yl]ethan-1-one], under setting [1], the half-maximal inhibitory concentration (IC50) is less than 10 µM.

With `Oc1cc(Cl)c(Cl)cc1[C@@H]1C[C@H]2CC[C@@H](C1)N2` (single isomer, unassigned; isomer 1) [Compound 15, 2-[8-azabicyclo[3.2.1]octan-3-yl]-4,5-dichlorophenol isomer 1], the IC50 is less than 10 µM.

For `O=C(NC1CNC1)[C@@H]1CC[C@H](c2c(O)ccc(Cl)c2Cl)N1` (single isomer, unassigned) [Compound 119], the IC50 under setting [1] was less than 10 µM.

Consider `Oc1cc(Cl)c(Cl)cc1C1=CCNC1` [Compound 20, 4,5-dichloro-2-(2,5-dihydro-1H-pyrrol-3-yl)phenol], for which the IC50 under setting [1] was less than 10 µM.

For `NC(=O)[C@@H]1CNC[C@H]1c1cc(Cl)c(Cl)cc1O` (relative stereo) [Compound 52, (3R,4S)-rel-4-(4,5-dichloro-2-hydroxyphenyl)pyrrolidine-3-carboxamide], under setting [1], the IC50 is less than 10 µM.

Turning to `O=C1NCCC12CC(c1c(O)ccc(Cl)c1Cl)CCN2` (centres unmarked) [Compound 87, 9-(2,3-dichloro-6-hydroxyphenyl)-2,6-diazaspiro[4.5]decan-1-one], the IC50 under setting [1] is less than 10 µM.

`N#CC1(c2cc(Cl)c(Cl)cc2O)CCNCC1` [Compound 13, 4-(4,5-dichloro-2-hydroxyphenyl)piperidine-4-carbonitrile] gave an IC50 of less than 10 µM.

These data come from patent publication US20230026611A1, “ARYL HETEROCYCLIC COMPOUNDS AS Kv1.3 POTASSIUM SHAKER CHANNEL BLOCKERS” (D. E. Shaw Research, LLC, priority 2019, published 2023).
